Laboratory results reported in US20120237535A1, “Therapeutic Compositions For The Treatment of HPV-Induced Diseases” (priority 2009, published 2012).

Columns and labels:
[1] = test system: bone marrow-derived dendritic cells; assay: Maturation of bone marrow-derived dendritic cells, maturation markers by flow cytometry; format: cell-based, mouse; details: BMDC incubated with 500 nM
Protocol: FIG. 2: Activation of bone marrow-derived dendritic cell maturation by the EDAHPV-E7 fusion protein. Bone marrow-derived dendritic cells were incubated for 48 hours with EDA-HPVE7 (500 nM), with peptide E7(49-57) (500 nM), with LPS (1 μg/ml) (positive control) or with culture medium (Control Neg). Cells were then harvested and analyzed by flow cytometry for the expression of the H-2b molecule or the maturation markers CD54 and CD86 (RFU: Relative fluorescence units).
Bone marrow (BM)-derived dendritic cells were generated from mouse femur marrow cell cultures. After lysing erythrocytes with ACK lysing buffer, bone marrow cell were washed and subsequently depleted of lymphocytes and granulocytes by incubation with a mixture of antibodies against CD4 (GK1; ATCC, Manassas, Va.), CD8 (53.6.72; ATCC), Ly-6G/Gr1 (BD-Pharmingen; San Diego, Calif.) and CD45R/B220 (BD-Pharmingen) followed by rabbit complement. […] After 24 h of culture, supernatants were harvested and IL-12 (p70) and TNF-α were measured by ELISA (BD-Pharmingen), according to manufacturer's instructions. Expression of DC maturation markers was measured by flow cytometry. […] After this initial incubation, cells were stained with the primary antibodies at 4° C. for 15 min, washed and acquired on FACSscan cytometer (BD Biosciences, San Diego, Calif.) and analyzed using Cell Quest software (BD Biosciences). […]

[2] = test system: bone marrow-derived dendritic cells; assay: IL-12 production by bone marrow-derived dendritic cells (ELISA); format: cell-based, mouse; details: 500 nM; ELISA of culture supernatant
Protocol: (§1) FIG. 3: EDA-HPV-E7 fusion protein induces the production of IL-12 by bone marrow-derived dendritic cells or the production of TNF-α by the human monocyte cell line THP-1. (A) Bone marrow-derived dendritic cells were incubated for […] with EDA-HPVE7 (500 nM), with peptide E7(49-57) (500 nM), with LPS (1 μg/ml) (positive control) or with culture medium (negative control). 24 hours later, the culture supernatant was harvested and the IL-12 released to the supernatant was measured by ELISA. (B) THP-1 cells were incubated for 15 hours with EDA-HPVE7 (500 nM), with peptide E7(49-57) (500 nM), with LPS (1 μg/ml) or with culture medium (negative control). After culture, the supernatants were harvested and the released TNF-α was measured by ELISA.
Bone marrow (BM)-derived dendritic cells were generated from mouse femur marrow cell cultures. […] After 24 h of culture, supernatants were harvested and IL-12 (p70) and TNF-α were measured by ELISA (BD-Pharmingen), according to manufacturer's instructions. Expression of DC maturation markers was measured by flow cytometry. […] After this initial incubation, cells were stained with the primary antibodies at 4° C. for 15 min, washed and acquired on FACSscan cytometer (BD Biosciences, San Diego, Calif.) and analyzed using Cell Quest software (BD Biosciences). […]

[3] = test system: human monocyte cell line THP-1; assay: In vitro monocyte activation, TNF-α released by THP-1 (ELISA); format: cell-based; details: 500 nM, 15 hours
Protocol: as §1
THP-1 cells were plated at 1×10^6 cells/well and cultured overnight at 37° C. and 5% CO2 in complete medium for stabilization of the culture. Different concentrations of the indicated antigens were added to the cultures and after 15 hour of incubation, culture supernatants were harvested. The concentration of human TNF-α released to the medium by the THP-1 cell line was quantified using a commercial ELISA assay (BD Pharmingen), according to manufacturer's instructions.
Therefore, it was assayed if the recombinant protein EDA-HPV-E7 was also able to induce maturation of BMDC in vitro.

[4] = test system: EL4 cells pulsed with DTc peptide; assay: In vivo induction of CTL by immunization, chromium release assay; design: species or system C57BL/6 mice; details: 2 nmol i.v. in PBS, no adjuvant; spleen cells day 7, cultured 5 days; compared with peptide DTc/E7(49-57)
Protocol: FIG. 4: In vivo induction of CTL by immunization with EDA-HPV-E7 protein or with the DTc/E7(49-57) peptide in PBS. (A) Mice were immunized i.v with 2 nmol EDA-HPV-E7 or with the DTc/E7(49-57) peptide. Seven days alter immunization, the mice were sacrificed and spleen cells were cultured in the presence or absence of DTc peptide for 5 days. CTL activity was measured using a conventional chromium release assay using EL4 cells radio labeled and pulsed with DTc peptide as target cells in the splenocytes cultures obtained from the mice immunized with the protein EDA-HPV-E7 (closed circles) ◯ with the peptide DTc/E7 (49-57) (open circles) (On the graphic, the absolute values are shown, said values are calculated by subtracting the value of lysis obtained without peptide from the value obtained in the presence of peptide). […]
It was assayed if mice immunized with the EDA-HPVE7 fusion protein developed HPVE7-specific T cell responses. […] CTL activity was measured using a conventional chromium release assay using radio labeled EL4 cells pulsed with DTc peptide or without peptide as target cells. (FIG. 4A) (On the graphic, the absolute values are shown, said values are calculated subtracting the value of lysis obtained without peptide from the value obtained in the presence of peptide). […]

[5] = test system: HPVE7-specific T cell responses; assay: IFN-γ producing cells by ELISPOT in splenocytes of immunized mice; format: in vivo, C57BL/6 mice; details: 2 nmol i.v. in PBS, compared with E7(49-57) peptide
[6] = test system: TC-1 tumor cells expressing HPV16-E6 and HPV16-E7; assay: Therapeutic efficacy against established TC-1 tumors (approximately 8 mm, treated day 25); format: in vivo, C57BL/6 mice; details: TC-1 s.c., treated i.v. day 25, tumors about 8 mm; for tumor growth: mean of two perpendicular diameters
Protocol: FIG. 6: Therapeutic efficacy of the EDA-HPVE7 fusion protein combined with poly I:C (pI:C). Mice were injected with 5×10^5 TC-1 cells and 25 days later, when tumor mean diameters were approximately 8 mm, they were treated intravenously with different vaccine combinations based on EDA (A). Tumor size, presented as the average of two perpendicular diameters (millimeters), was measured at regular intervals. The number of tumor-free mice on day 100 relative to the total number of animals included and the percent surviving on day 100 are indicated for each set of experiments. The p-value (*p<0.05) determined by the likelihood ratio test comparing tumor growth in the EDA-E7/pI:C treated group with tumor growth in the p:IC-treated group is indicated. The mice were sacrificed when the tumor diameters reached 20 mm or when necessary due to the sanitary status of the animals. (B) Survival curves from the immunized mice with the indicated immunogens are indicated (p values are indicated ((*p<0.05)). Pooled data of two independent experiments are shown.
THP1 cells (American Type Culture Collection ATCC, Manassas, Va.) were used for in vitro assays of monocyte activation by EDA derived fusion proteins. TC-1, tumor cells expressing HPV16-E6 and HPV16-E7 proteins derived from primary mouse lung epithelial cells, were obtained from the American Type Culture Collection (LGC Promochem, Molsheim, France). Cells were maintained in RPMI 1640 with GlutaMAX supplemented with 10% heat-inactivated fetal calf serum, 100 units/ml penicillin, 100 μg/ml streptomycin, 0.4 mg/ml geneticin and 5×10-5 mol/l 2-mercaptoethanol (Life Technologies, Cergy-Pontoise, France). 5×10^5 TC-1 cells were injected into the shaved back (left side) of C57BL/6 mice in 200 μL PBS. Tumor size, presented as the average of two perpendicular diameters (millimeters), was measured at regular intervals.
Monolix software (http://www.monolix.org/) was used for analysis of tumor growth data with non-linear mixed effect models. Mean diameters of tumors over time were fitted using the model described in equation 1.1 and treatments were compared using the likelihood ratio test.
Kaplan-Meier plots were used to analyze survival. Prism software (GraphPad Software, Inc. San Diego, USA) was used to determine the significance of differences in survival curves with a log rank test. The results of the in vivo killing analysis were analyzed by ANOVA followed by Dunnett's Multiple Comparison test. p values less than 0.05 were considered to be statistically significant.
To better evaluate the potency of EDA-HPVE7 as an antigen delivery system and as a vaccine, the therapeutic efficacy of this fusion protein was compared with that of the E7(49-57) peptide, both supplemented with TLR ligand pI:C. […]

| Substance | expression of the maturation marker CD54 [1] | expression of the maturation marker IAb [1] | production of IL-12 cytokine by BMDC [2] | production of TNF-α cytokine by THP-1 [3] | CTL activity against target cells pulsed with the cytotoxic T cell epitope E7 [4] | number of IFN-γ producing spots specific for E7(49-57) [5] | number of IFN-γ producing spots specific for TC1 cells ([5]; irradiated TC1 cells) | tumor eradication (in words) [6] | tumor growth [6] | survival ([6]; Kaplan-Meier, log rank test) |
| --- | --- | --- | --- | --- | --- | --- | --- | --- | --- | --- |
| EDA-HPVE7: recombinant fusion protein: amino acids 1-29 of HPV-E7 at N-terminus of fibronectin EDA, amino acids 43-98 at C-terminus, six histidine residues | able to upregulate expression | able to upregulate expression | able to strongly stimulate the production | able to induce the production | higher levels of CTL activity | higher number of IFN-γ producing spots | higher number of IFN-γ producing spots | unable to eradicate the tumors | a delay in tumor growth was observed | – |
| Polyinosinic-polycytidylic acid [pI:C, reference compound] | – | – | – | – | – | – | – | – | followed the same tumor growth kinetics | slight, statistically non-significant prolongation of survival |
